Reference: PubChem BioAssay (NCI)
Where “and” joins values, the source holds several entries; their conditions need not be identical. Identical values can stand only once.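 Cultured in 96-well plates, cells were exposed to test compound for 48 hours across five concentrations. Definition used: TGI = concentration required for complete inhibition of growth.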

Legend:
Assay in all cases: NCI tumour cell line growth inhibition, 48 h
HOP-18 NSCLC = system: HOP-18 NSCLC
RXF-631 renal = system: RXF-631 renal
MDA-N = system: MDA-N
DMS 273 small cell lung = system: DMS 273 small cell lung
XF 498 CNS = system: XF 498 CNS
SNB-78 CNS = system: SNB-78 CNS
KM20L2 colon = system: KM20L2 colon

Row | Structure (SMILES) | TGI (HOP-18 NSCLC) | TGI (RXF-631 renal) | TGI (MDA-N) | TGI (DMS 273 small cell lung) | TGI (XF 498 CNS) | TGI (SNB-78 CNS) | TGI (KM20L2 colon)
1 | S=c1[nH]nc(Cc2ccccc2)c(=S)[nH]1 | > 100 µM | > 100 µM | > 100 µM | > 100 µM | > 100 µM | > 100 µM | –
2 | S=c1nc(COc2ccc(Cl)cc2Cl)[nH][nH]1 | – | – | – | > 100 µM | > 100 µM | > 100 µM | > 100 µM
3 | O=[N+]([O-])c1ccc(C2CC(c3ccccc3Cl)=Nc3ccccc3S2=O)cc1 (stereo not given) | 39.5 µM | 21.5 µM | 21.8 µM | 8.87 µM | 18.4 µM | 56 µM | 7.04 µM
4 | N#CC1CCCCOCCOCCOCCOCCOCCCCCC1=O (stereo not given) | > 100 µM | > 100 µM | – | > 100 µM | – | > 100 µM | > 100 µM
5 | O=C1C2=C(c3ccccc31)C(c1ccccc1)N1C(=O)CSC1=N2 (stereo not given) | – | > 100 µM | 47.3 µM | > 100 µM | > 100 µM | – | > 100 µM
6 | O=[N+]([O-])c1ccc(Cl)c(C2CC(c3cccc4ccccc34)=Nc3ccccc3S2)c1 (stereo not given) | > 100 µM | > 100 µM | – | > 100 µM | – | > 66.7 µM | > 100 µM
7 | Cc1nnc2c3nnc(C)n3c3ccccc3n12 | – | – | – | > 100 µM | > 100 µM | > 100 µM | > 100 µM
8 | COc1cc(OC)c2nccc(NCCCN(C)C)c2c1[N+](=O)[O-] | – | – | > 100 µM | – | – | – | –
9 | O=c1cc(-c2c[nH]c3ccccc23)[nH]c2cc3c(cc12)OCO3 | – | > 100 µM | – | > 100 µM | > 100 µM | – | > 100 µM
10 | COc1cccc(CSCC(=O)O)c1 | – | – | > 100 µM | – | – | – | –
11 | CS(=O)(=O)NNS(=O)(=O)c1ccccc1 | – | – | – | > 100 µM | > 100 µM | – | > 100 µM
12 | CN(C)c1nnnn1-c1c(N)n(C)c(=O)n(C)c1=O | > 100 µM | > 100 µM | – | > 100 µM | > 100 µM | > 100 µM | > 100 µM
13 | Cc1ccc(NC(=O)C2C(=O)N(c3ccc(C)c(C)c3)C(=O)/C2=N\NC(N)=O)cc1C (stereo not given) | > 100 µM | – | – | – | > 100 µM | > 100 µM | > 100 µM
14 | NC(=O)c1ccccc1NC(=O)C(=O)Cc1nc2ccccc2[nH]c1=O | – | > 100 µM | – | > 100 µM | – | – | > 100 µM
15 | Cc1cc(-c2ccccc2)nc(Nc2nc3ccccc3o2)n1 | – | – | – | – | > 100 µM | > 100 µM | > 100 µM
16 | CC(=O)OC1=CC2=CC[C@H]3[C@@H]4CCC(=O)[C@@]4(C)CC(=O)[C@]3(S)[C@@]2(C)CC1 | – | – | > 100 µM | – | – | – | –
17 | COC(=O)C1OC2(CCCC3CC32)O[C@H]1C(=O)OC (stereo not given in full) | – | – | > 100 µM | – | – | – | –
18 | NC(=O)c1c([N+](=O)[O-])cc(C(F)(F)F)cc1[N+](=O)[O-] | > 100 µM | – | – | > 100 µM | > 100 µM | > 100 µM | 93.5 µM
19 | Clc1ccc(-c2nnc(-c3cccc4ccccc34)o2)cc1Cl | – | – | > 100 µM | – | – | – | –

Row | Structure (SMILES) | TGI (HOP-18 NSCLC) | TGI (RXF-631 renal) | TGI (MDA-N) | TGI (DMS 273 small cell lung) | TGI (XF 498 CNS) | TGI (SNB-78 CNS) | TGI (KM20L2 colon)
20 | CN(COC(=O)c1ccccc1)c1nc(N(C)COC(=O)c2ccccc2)nc(N(C)COC(=O)c2ccccc2)n1 | – | – | > 100 µM | – | – | – | –
21 | O=C(O)C1CCCCC1c1c2ccc(=O)c(O)c-2oc2c(O)c(O)ccc12 (stereo not given) | – | – | 44.9 µM | – | – | – | –
22 | Cc1noc2c1C(=O)CCC2 | > 100 µM | – | – | – | > 100 µM | > 100 µM | > 100 µM
23 | NC1=NC(c2ccc(Cl)cc2)N(c2ccc(S(N)(=O)=O)cc2)C(N)=N1 (stereo not given) | – | – | > 100 µM | – | – | – | –
24 | Cc1cn(C2C=CC(CO)O2)c(=O)[nH]c1=O (stereo not given) | – | – | > 1000 µM | – | – | – | –
25 | CCC/C=C1\CCC(CN(C)C)C1=O (stereo not given) | 39 µM | – | – | 27.1 µM | 11.1 µM | – | 27.2 µM
26 | ON(Cc1ccccc1)C(=S)c1ccccc1 | > 100 µM | > 100 µM | > 100 µM | > 76.5 µM | > 100 µM | > 100 µM | > 100 µM
27 | Cc1cccc(C(C)C)c1N1C(=O)C(=O)C(c2nc3ccccc3o2)C(=O)C1=O | > 100 µM | > 100 µM | – | > 100 µM | 69.1 µM | > 100 µM | > 100 µM
28 | O=C(CC1(O)C(=O)Nc2ccc(Br)cc21)c1ccc(Cl)cc1Cl (stereo not given) | – | > 100 µM | – | – | – | > 100 µM | > 100 µM
29 | O=[N+]([O-])c1ccc(-c2noc(-c3ccc(Cl)cc3)c2C2=NCCN2)cc1 | > 100 µM | – | – | – | > 100 µM | > 100 µM | > 100 µM
30 | O=C(O)C1CC2(C1)CC(C(=O)O)C2 (stereo not given) | – | – | > 100 µM | – | – | – | –
31 | CC(=O)NC1C(OCc2ccccc2)OC(CO)C(O)C1OC(C)C(=O)N[C@@H](C)C(=O)N[C@H](CCC(=O)OCCNc1c2ccccc2nc2cccc([N+](=O)[O-])c12)C(N)=O (stereo not given in full) | 0.00289 µM and 0.00803 µM | – | – | 0.00433 µM | – | 0.0809 µM | 0.00247 µM
32 | COC(=O)C1=C(c2ccc(OC)c(OC)c2)OC(c2cc(OC)c(OC)c(OC)c2)C1 (stereo not given) | > 100 µM | > 100 µM | – | > 100 µM | > 100 µM | 68.5 µM | > 100 µM
33 | CCN(CC)c1ccc(N=Nc2ccc([N+](=O)[O-])cc2OC(=O)/C=C/c2ccccc2)c(OC(=O)/C=C/c2ccccc2)c1 | 9.04 µM | > 100 µM | – | > 100 µM | > 100 µM | > 100 µM | –
34 | O=C1NC(=O)C(=Nc2cccc3c(=O)[nH][nH]c(=O)c23)C(c2nc3ccccc3s2)C1=O (stereo not given) | > 100 µM | > 100 µM | – | > 100 µM | > 100 µM | > 100 µM | > 100 µM
35 | COC(=O)C(=CNC(N)=O)C(=O)OC | – | – | > 100 µM | – | – | – | –
36 | C[N+](C)(C)CC1CCC/C1=N/O (stereo not given) | > 100 µM | – | – | > 100 µM | 3.1 µM | > 100 µM | 49.4 µM
37 | Cn1c(=O)c(NC(=O)C(Cl)(Cl)Cl)nc2ccccc21 | – | > 100 µM | – | > 100 µM | > 100 µM | > 100 µM | > 100 µM
38 | CN=C(NC(=S)N(C)C)N(C)C | > 100 µM | > 100 µM | – | > 100 µM | > 100 µM | > 100 µM | > 100 µM
